Consider 15 compounds from US9765087B2, “Benzimidazole derivatives” (ENANTA PHARMACEUTICALS, INC., priority 2009, dated 2017).

Each structure is given as a SMILES string. Like-named read-outs stand apart in the source and are kept apart here. Some results are limits rather than exact numbers.

This assay concerns HCV 1a genotype replicon. Briefly: HCV replicon assay (qRT-PCR or luciferase), genotype 1a. The format is cell-based. The following applies: Hepatitis C virus. As to the method: HCV replicon cell lines (kindly provided by R. Bartenschlager) isolated from colonies as described by Lohman et. al. (Lohman et al. (1999) Science 285: 110-113, expressly incorporated by reference in its entirety) and used for all experiments. The HCV replicon has the nucleic acid sequence set forth in EMBL Accession No.: AJ242651, the coding sequence of which is from nucleotides 1801 to 8406.
These cell lines were maintained at 37° C., 5% CO2, 100% relative humidity in DMEM (Cat#11965-084, Invitrogen), with 10% fetal calf serum (“FCS”, Invitrogen), 1% non-essential amino acids (Invitrogen), 1% of Glutamax (Invitrogen), 1% of 100× penicillin/streptomycin (Cat#15140-122, Invitrogen) and Geneticin (Cat#10131-027, Invitrogen) at 0.75 mg/ml or 0.5 mg/ml for 11-7 and Huh-luc/neo-ET cells, respectively.
EC50 values of single agent compounds and combinations were determined by HCV RNA detection using quantitative RT-PCR, according to the manufacturer's instructions, with a TAQMAN® One-Step RT-PCR Master Mix Reagents Kit (Cat#AB 4309169, Applied Biosystems) on an ABI Model 7500 thermocycler. The TaqMan primers used for detecting and quantifying HCV RNA were obtained from Integrated DNA Technologies. HCV RNA was normalized to GAPDH RNA levels in drug-treated cells, which is detected and quantified using the Human GAPDH Endogenous Control Mix (Applied Biosystems, AB 4310884E). Total cellular RNA is purified from 96-well plates using the RNAqueous 96 kit (Ambion, Cat# AM1812). Chemical agent cytotoxicity is evaluated using an MTS assay according to the manufacturer's directions (Promega).
Since clinical drug resistance often develops in viral infections following single agent therapies, there is a need to assess the additive, antagonistic, or synergistic properties of combination therapies. We used the HCV replicon system to assess the potential use of the compound of the present invention or in combination therapies with Interferon alpha, cyclosporine analogs and inhibitors targeting other HCV proteins. The acute effects of a single or combinations of drugs are studied in the “Huh-luc/neo-ET” replicon with each chemical agent titrated in an X or Y direction in a 6 point two-fold dilution curve centered around the EC50 of each drug. Briefly, replicon cells are seeded at 7,000 cells per well in 90 ul DMEM (without phenol red, Invitrogen Cat.#31053-036) per well with 10% FCS, 1% non-essential amino acids, 1% of Glutamax and 1% of 100× penicillin/streptomycin and incubated overnight at 37° C., 5% CO2, 100% relative humidity. 16-20 h after seeding cells, test compounds previously solubilized and titrated in dimethyl sulfoxide (“DMSO”) from each X plate and Y plate are diluted 1:100 in DMEM (without phenol red, Invitrogen Cat.#31053-036) with 10% FCS, 1% non-essential amino acids, 1% of Glutamax and 1% of 100× penicillin/streptomycin and added directly to the 96-well plate containing cells and growth medium at a 1:10 dilution for a final dilution of compound and DMSO of 1:1000 ([…] final concentration). Drug treated cells are incubated at 37° C., 5% CO2, 100% relative humidity for 72 hours before performing a luciferase assay using 100 ul per well BriteLite Plus (Perkin Elmer) according to the manufacturer's instructions. Data analysis utilizes the method published by Prichard and Shipman (Antiviral Research, 1990. 14:181-205). Using this method, the combination data are analyzed for antagonistic, additive, or synergistic combination effects across the entire combination surface created by the diluted compounds in combination.
The compounds of the present invention can be effective against the HCV 1b genotype. It should also be understood that the compounds of the present invention can inhibit multiple genotypes of HCV. In one embodiment compound of the present invention are active against the 1a, 1b, 2a, 2b, 3a, 4a, and 5a genotypes. […] EC50 ranges against HCV 1b and 1a are as follows: A>10 nM; B1-10 nM; C<1 nM.
On the technique in general: In antiviral work, replicon cells carry a viral genome segment that copies itself.

[1] abbreviates: Table 12, range class, read-out: 1a EC50 Range.
[2] abbreviates: Table 12, numeric values, read-out: 1a EC50.

For orientation: EC50 means the concentration at which the effect is half-maximal.

With `CC[C@@H](C)[C@H](NC(=O)OC)C(=O)N1CC2(CC2)C[C@H]1c1nc2ccc(C#Cc3ccc(-c4cnc([C@@H]5CC6(CC6)CN5C(=O)[C@@H](NC(=O)OC)C(C)C)[nH]4)cc3)cc2[nH]1` [Example 656], the half-maximal effective concentration (EC50) under setting [1] was < 1 nM.

With `COC(=O)N[C@H](C(=O)N1CC2(CC2)C[C@H]1c1nc(-c2ccc(C#Cc3ccc4[nH]c([C@@H]5CC6(CC6)CN5C(=O)[C@@H](NC(=O)OC)C(C)C)nc4c3)cc2)c(Br)[nH]1)C(C)C` [Example 657], under setting [1], the concentration for a half-maximal effect (EC50) was < 1 nM.

For the compound `COC(=O)N[C@H](C(=O)N1CC2(CC2)C[C@H]1c1nc2ccc(C#Cc3ccc(-c4cnc([C@@H]5CC6(CC6)CN5C(=O)[C@@H](NC(=O)OC)C5CCOCC5)[nH]4)cc3)cc2[nH]1)C(C)C` [Example 658], under setting [1], the 50% effective concentration (EC50) was < 1 nM.

Take `COC(=O)N[C@H](C(=O)N1CC2(CC2)C[C@H]1c1nc2ccc(C#Cc3ccc(-c4cnc([C@@H]5C[C@H]6C[C@H]6N5C(=O)[C@H](NC(=O)OC)c5ccccc5)[nH]4)cc3)cc2[nH]1)C(C)C` [Example 659]: the concentration for a half-maximal effect (EC50) under setting [1] was < 1 nM.

In the case of `COC(=O)N[C@H](C(=O)N1CC2(CC2)C[C@H]1c1nc(-c2ccc(C#Cc3ccc4[nH]c([C@@H]5CC6(CC6)CN5C(=O)[C@@H](NC(=O)OC)C(C)C)nc4c3)cc2)c(F)[nH]1)C(C)C` [Example 660], under setting [1], the EC50 was < 1 nM.

In the case of `COC(=O)N[C@H](C(=O)N1CC2(CC2)C[C@H]1c1nc(-c2ccc(C#Cc3ccc4[nH]c([C@@H]5CC6(CC6)CN5C(=O)[C@@H](NC(=O)OC)C(C)C)nc4c3)cc2)c(-c2ccccc2)[nH]1)C(C)C` [Example 661], the EC50 under setting [2] was 0.369 nM.

For the compound `COC(=O)N[C@H](C(=O)N1CC2(CC2)C[C@H]1c1nc(-c2cccnc2)c(-c2ccc(C#Cc3ccc4nc([C@@H]5CC6(CC6)CN5C(=O)[C@@H](NC(=O)OC)C(C)C)[nH]c4c3)cc2)[nH]1)C(C)C` [Example 662], the 50% effective concentration (EC50) under setting [1] is < 1 nM.

For the compound `COC(=O)N[C@H](C(=O)N1CC2(CC2)C[C@H]1c1nc2ccc(C#Cc3ccc(-c4cnc([C@@H]5CCCN5C(=O)[C@H](NC(=O)OC)c5cccs5)[nH]4)cc3)cc2[nH]1)C(C)C` [Example 663], under setting [2], the concentration giving a half-maximal response (EC50) came to 0.295 nM.

For `COC(=O)N[C@H](C(=O)N1CC2(CC2)C[C@H]1c1nc2ccc(C#Cc3ccc(-c4cnc([C@@H]5CCCN5C(=O)[C@H](NC(=O)OC)c5ccc(F)cc5)[nH]4)cc3)cc2[nH]1)C(C)C` [Example 664], the EC50 under setting [1] is < 1 nM.

`COC(=O)N[C@H](C(=O)N1CC2(CC2)C[C@H]1c1nc2ccc(C#Cc3ccc(-c4cnc([C@@H]5CCCN5C(=O)[C@H](NC(=O)OC)c5cccc(Cl)c5)[nH]4)cc3)cc2[nH]1)C(C)C` [Example 665]: under setting [1], the half-maximal effective concentration (EC50) is < 1 nM.

Take `COC(=O)N[C@H](C(=O)N1CC2(CC2)C[C@H]1c1ncc(-c2ccc(C#Cc3ccc4nc([C@@H]5CC6(CC6)CN5C(=O)[C@H](NC(=O)OC)C5CCCCC5)[nH]c4c3)cc2)[nH]1)C(C)C` [Example 667]: under setting [1], the half-maximal effective concentration (EC50) was in the range of 1 to 10 nM.

With `COC(=O)N[C@H](C(=O)N1CC2(CC2)C[C@H]1c1ncc(-c2ccc(C#Cc3ccc4nc([C@@H]5CC6(CC6)CN5C(=O)[C@@H](NC(=O)OC)[C@@H](C)c5ccccc5)[nH]c4c3)cc2)[nH]1)C(C)C` [Example 668], the half-maximal effective concentration (EC50) under setting [1] is < 1 nM.

Consider `COC(=O)N[C@H](C(=O)N1CC2(CC2)C[C@H]1c1ncc(-c2ccc(C#Cc3ccc4nc([C@@H]5CC6(CC6)CN5C(=O)[C@H](NC(=O)OC(C)(C)C)[C@H](C)c5ccccc5)[nH]c4c3)cc2)[nH]1)C(C)C` [Example 669], for which the EC50 under setting [1] is > 10 nM.

In the case of `COCC(COC)[C@H](NC(=O)OC)C(=O)N1CC2(CC2)C[C@H]1c1nc2ccc(C#Cc3ccc(-c4cnc([C@@H]5CC6(CC6)CN5C(=O)[C@@H](NC(=O)OC)C(C)C)[nH]4)cc3)cc2[nH]1` [Example 670], the EC50 under setting [1] was < 1 nM.

As for `COC(=O)N[C@H](C(=O)N1CC2(CC2)C[C@H]1c1nc2ccc(C#Cc3ccc(-c4cnc([C@@H]5C[C@@H](C)CN5C(=O)[C@H](NC(=O)OC)c5ccccc5)[nH]4)cc3)cc2[nH]1)C(C)C` [Example 671], the half-maximal effective concentration (EC50) under setting [1] was < 1 nM.
